Test results taken from US20240424111A1, “Degrader Compounds and Uses Thereof” (CALICO LIFE SCIENCES LLC, priority 2021, published 2024).

Experiments:
PTPN2 [1] = biological target: T1, PTPN2 (Homo sapiens, UniProt P17706); assay: HiBiT PTPN2 degradation in 293T.109 (HiBiT-PTPN2) cells, 24 hours; type: cell-based; conditions: 293T.109 cells
T1 construct: expressed in transfected cells; host or cells: 293T.109 (HiBiT-PTPN2), derived from 293T WT (ATCC)
T1 sequence (P17706 1-415): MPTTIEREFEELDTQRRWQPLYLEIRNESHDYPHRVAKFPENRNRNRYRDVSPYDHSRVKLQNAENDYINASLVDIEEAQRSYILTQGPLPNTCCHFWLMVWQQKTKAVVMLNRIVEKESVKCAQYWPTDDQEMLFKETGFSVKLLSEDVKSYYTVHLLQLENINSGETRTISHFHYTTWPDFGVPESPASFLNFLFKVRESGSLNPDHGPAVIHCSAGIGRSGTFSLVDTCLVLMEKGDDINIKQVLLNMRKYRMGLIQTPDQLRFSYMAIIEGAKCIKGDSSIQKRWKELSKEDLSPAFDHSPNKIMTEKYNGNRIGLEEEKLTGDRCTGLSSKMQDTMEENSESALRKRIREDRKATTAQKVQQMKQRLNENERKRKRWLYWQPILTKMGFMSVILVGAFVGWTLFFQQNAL
Text: Dulbecco's modified Eagle medium (DMEM) without phenol red and fetal bovine serum (FBS) were purchased from Gibco (Grand Island, NY, USA). Nano-Glo® HiBiT Lytic Assay System was purchased from Promega (Medison, WI, USA). 293T. 109 (HiBiT-PTPN2) cell line was generated by ectopically expressing PTPN2 with N-terminal HiBiT fusion tag in 293T WT cell line purchased from ATCC (Manassas, VA, USA). Cell culture flasks and 384-well microplates were acquired from VWR (Radnor, PA, USA).
PTPN2 Degradation Analysis
(§1) PTPN2 degradation was determined based on quantification of luminescent signal using Nano-Glo® HiBiT Lytic Assay kit. Test compounds were added to the 384-well plate from a top concentration of 10 μM with 11 points, half log titration in duplicates. 293T. 109 cells were added into 384-well plates at a cell density of 5000 cells per well. The plates were kept at 37° C. with 5% CO2 for 24 hours. The cells treated in the absence of the test compound were the negative control and the cells without Nano-Glo® HiBiT Lytic reagent were the positive control. After 24-hour incubation, Nano-Glo® HiBiT Lytic Assay reagents were added to the cells. Luminescence was acquired on EnVision™ Multilabel Reader (PerkinElmer, Santa Clara, CA, USA).

PTPN2 [2] = biological target: T2, PTPN2 (Mus musculus, UniProt Q06180); assay: HiBiT PTPN2 degradation in B16F10.4 cells, 24 hours; type: cell-based
T2 construct: HiBiT; host or cells: B16F10.4
T2 sequence (Q06180 1-406): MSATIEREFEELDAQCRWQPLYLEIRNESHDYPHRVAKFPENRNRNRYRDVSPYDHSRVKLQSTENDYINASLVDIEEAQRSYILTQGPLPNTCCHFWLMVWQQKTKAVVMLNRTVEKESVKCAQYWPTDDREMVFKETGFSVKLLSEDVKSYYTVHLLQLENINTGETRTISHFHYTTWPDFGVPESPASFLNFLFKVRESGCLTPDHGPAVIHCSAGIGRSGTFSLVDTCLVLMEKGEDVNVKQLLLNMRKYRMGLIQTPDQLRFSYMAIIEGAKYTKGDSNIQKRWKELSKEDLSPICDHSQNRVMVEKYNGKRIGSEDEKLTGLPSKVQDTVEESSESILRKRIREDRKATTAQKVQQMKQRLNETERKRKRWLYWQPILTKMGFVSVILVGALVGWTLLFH
Protocol: as §1

## C[C@H]1CN(CC(=O)Nc2ccc3c(F)c(N4CC(=O)NS4(=O)=O)c(O)cc3c2)CCN1c1ccc2c(c1F)n(C)c(=O)n2C1CCC(=O)NC1=O (stereo partly drawn) [Degrader 66]
PTPN2 [1]
  DC50: 150 to 500 nM
PTPN2 [2]
  DC50: ≥ 500 nM

## Cn1c(=O)n(C2CCC(=O)NC2=O)c2ccc(N3CCC(O)(CC(=O)N4CC(Oc5ccc6cc(O)c(N7CC(=O)NS7(=O)=O)c(F)c6c5)C4)CC3)cc21 (stereo not drawn) [Degrader 67]
PTPN2 [1]
  DC50: 150 to 500 nM
PTPN2 [2]
  DC50: 150 to 500 nM

## Cn1c(=O)n(C2CCC(=O)NC2=O)c2ccc(N3CCC(CC4CC4C(=O)Nc4ccc5c(F)c(N6CC(=O)NS6(=O)=O)c(O)cc5c4)CC3)cc21 (stereo not drawn) [Degrader 68]
PTPN2 [1]
  DC50: 50 to 150 nM
PTPN2 [2]
  DC50: 50 to 150 nM

## COc1cc(CC(=O)Nc2ccc3c(F)c(N4CC(=O)NS4(=O)=O)c(O)cc3c2)ccc1-c1ccc2c(c1)n(C)c(=O)n2C1CCC(=O)NC1=O (stereo not drawn) [Degrader 69]
PTPN2 [1]
  DC50: 150 to 500 nM
PTPN2 [2]
  DC50: 150 to 500 nM

## Cc1nn(CC(=O)Nc2ccc3c(F)c(N4CC(=O)NS4(=O)=O)c(O)cc3c2)c(C)c1-c1ccc2c(c1)n(C)c(=O)n2C1CCC(=O)NC1=O (stereo not drawn) [Degrader 70]
PTPN2 [1]
  DC50: < 50 nM
PTPN2 [2]
  DC50: < 50 nM

## Cn1c(=O)n(C2CCC(=O)NC2=O)c2ccc(Nc3ccc(CC(=O)Nc4ccc5c(F)c(N6CC(=O)NS6(=O)=O)c(O)cc5c4)cc3F)cc21 (stereo not drawn) [Degrader 71]
PTPN2 [1]
  DC50: 50 to 150 nM
PTPN2 [2]
  DC50: 50 to 150 nM

## Cn1c(=O)n(C2CCC(=O)NC2=O)c2ccc(Nc3cccc(CC(=O)Nc4ccc5c(F)c(N6CC(=O)NS6(=O)=O)c(O)cc5c4)c3)cc21 (stereo not drawn) [Degrader 72]
PTPN2 [1]
  DC50: < 50 nM
PTPN2 [2]
  DC50: 50 to 150 nM

## Cn1c(=O)n(C2CCC(=O)NC2=O)c2ccc(-c3ccc(NC(=O)Nc4ccc5c(F)c(N6CC(=O)NS6(=O)=O)c(O)cc5c4)cc3)cc21 (stereo not drawn) [Degrader 73]
PTPN2 [1]
  DC50: 50 to 150 nM
PTPN2 [2]
  DC50: 50 to 150 nM

## Cn1c(=O)n(C2CCC(=O)NC2=O)c2cc(F)c(N3CCC(O)(CC(=O)Nc4ccc5c(F)c(N6CC(=O)NS6(=O)=O)c(O)cc5c4)CC3)cc21 (stereo not drawn) [Degrader 74]
PTPN2 [1]
  DC50: < 50 nM
PTPN2 [2]
  DC50: 150 to 500 nM

## Cn1c(=O)n(C2CCC(=O)NC2=O)c2ccc3c(c21)CCCN3C1CCN(CC(=O)Nc2ccc3c(F)c(N4CC(=O)NS4(=O)=O)c(O)cc3c2)CC1 (stereo not drawn) [Degrader 75]
PTPN2 [1]
  DC50: ≥ 500 nM
PTPN2 [2]
  DC50: ≥ 500 nM

## Cn1c(=O)n(C2CCC(=O)NC2=O)c2ccc(Oc3ccc(CC(=O)Nc4ccc5c(F)c(N6CC(=O)NS6(=O)=O)c(O)cc5c4)cc3)cc21 (stereo not drawn) [Degrader 76]
PTPN2 [1]
  DC50: 50 to 150 nM
PTPN2 [2]
  DC50: 50 to 150 nM

## Cn1c(=O)n(C2CCC(=O)NC2=O)c2ccc(-c3cccc(CC(=O)Nc4ccc5c(F)c(N6CC(=O)NS6(=O)=O)c(O)cc5c4)c3)cc21 (stereo not drawn) [Degrader 77]
PTPN2 [1]
  DC50: 150 to 500 nM
PTPN2 [2]
  DC50: ≥ 500 nM

## Cn1c(=O)n(C2CCC(=O)NC2=O)c2ccc(C3CCN(C/C=C/c4ccc5c(F)c(N6CC(=O)NS6(=O)=O)c(O)cc5c4)CC3)cc21 (stereo not drawn) [Degrader 78]
PTPN2 [1]
  DC50: 150 to 500 nM
PTPN2 [2]
  DC50: ≥ 500 nM

## Cc1cc(-c2ccc3c(c2)n(C)c(=O)n3C2CCC(=O)NC2=O)ccc1CC(=O)Nc1ccc2c(F)c(N3CC(=O)NS3(=O)=O)c(O)cc2c1 (stereo not drawn) [Degrader 79]
PTPN2 [1]
  DC50: 50 to 150 nM
PTPN2 [2]
  DC50: 50 to 150 nM

## Cn1c(=O)n(C2CCC(=O)NC2=O)c2ccc(-c3cccc(CCC(=O)Nc4ccc5c(F)c(N6CC(=O)NS6(=O)=O)c(O)cc5c4)c3)cc21 (stereo not drawn) [Degrader 80]
PTPN2 [1]
  DC50: < 50 nM
PTPN2 [2]
  DC50: 150 to 500 nM

## Cc1cc(CC(=O)Nc2ccc3c(F)c(N4CC(=O)NS4(=O)=O)c(O)cc3c2)ccc1Oc1ccc2c(c1)n(C)c(=O)n2C1CCC(=O)NC1=O (stereo not drawn) [Degrader 81]
PTPN2 [1]
  DC50: 50 to 150 nM
PTPN2 [2]
  DC50: 50 to 150 nM

## Cn1cc(C(=O)Nc2ccc3c(F)c(N4CC(=O)NS4(=O)=O)c(O)cc3c2)c2ccc(-c3ccc4c(c3)n(C)c(=O)n4C3CCC(=O)NC3=O)cc21 (stereo not drawn) [Degrader 82]
PTPN2 [1]
  DC50: 150 to 500 nM
PTPN2 [2]
  DC50: 150 to 500 nM

## Cn1c(=O)n(C2CCC(=O)NC2=O)c2ccc(-c3cc4cnn(CC(=O)Nc5ccc6c(F)c(N7CC(=O)NS7(=O)=O)c(O)cc6c5)c4cc3F)cc21 (stereo not drawn) [Degrader 83]
PTPN2 [1]
  DC50: < 50 nM
PTPN2 [2]
  DC50: < 50 nM

## Cn1c(=O)n(C2CCC(=O)NC2=O)c2ccc(N3CCC4(CC3)CN(CC(=O)Nc3ccc5c(F)c(N6CC(=O)NS6(=O)=O)c(O)cc5c3)C4)cc21 (stereo not drawn) [Degrader 84]
PTPN2 [1]
  DC50: 50 to 150 nM
PTPN2 [2]
  DC50: 150 to 500 nM

## Cc1nn(C2CCC(=O)NC2=O)c2ccc(-c3ccc(CC(=O)Nc4ccc5c(F)c(N6CC(=O)NS6(=O)=O)c(O)cc5c4)cc3)cc12 (stereo not drawn) [Degrader 85]
PTPN2 [1]
  DC50: 150 to 500 nM
PTPN2 [2]
  DC50: 150 to 500 nM

## O=C1CCC(n2c3ccc(CCCCNC(=O)Nc4ccc5c(F)c(N6CC(=O)NS6(=O)=O)c(O)cc5c4)cc3c3cccnc32)C(=O)N1 (stereo not drawn) [Degrader 86]
PTPN2 [1]
  DC50: ≥ 500 nM
PTPN2 [2]
  DC50: ≥ 500 nM

## Cc1cc(CC(=O)Nc2ccc3c(F)c(N4CC(=O)NS4(=O)=O)c(O)cc3c2)ccc1N(C)c1ccc2c(c1)n(C)c(=O)n2C1CCC(=O)NC1=O (stereo not drawn) [Degrader 87]
PTPN2 [1]
  DC50: 50 to 150 nM
PTPN2 [2]
  DC50: 50 to 150 nM

## Cn1c(=O)n(C2CCC(=O)NC2=O)c2ccc(-n3ccc(CC(=O)Nc4ccc5c(F)c(N6CC(=O)NS6(=O)=O)c(O)cc5c4)n3)cc21 (stereo not drawn) [Degrader 88]
PTPN2 [1]
  DC50: 150 to 500 nM
PTPN2 [2]
  DC50: ≥ 500 nM

## Cn1c(=O)n(C2CCC(=O)NC2=O)c2ccc(N3CCC(CNC(=O)Nc4ccc5c(F)c(N6CC(=O)NS6(=O)=O)c(O)cc5c4)CC3)cc21 (stereo not drawn) [Degrader 89]
PTPN2 [1]
  DC50: 50 to 150 nM
PTPN2 [2]
  DC50: 50 to 150 nM

## C[C@H]1CN(c2ccc3c(c2)n(C)c(=O)n3C2CCC(=O)NC2=O)CCN1CC(=O)Nc1ccc2c(F)c(N3CC(=O)NS3(=O)=O)c(O)cc2c1 (stereo partly drawn) [Degrader 90]
PTPN2 [1]
  DC50: 150 to 500 nM
PTPN2 [2]
  DC50: 50 to 150 nM

## C[C@@H]1CN(c2ccc3c(c2)n(C)c(=O)n3C2CCC(=O)NC2=O)CCN1CC(=O)Nc1ccc2c(F)c(N3CC(=O)NS3(=O)=O)c(O)cc2c1 (stereo partly drawn) [Degrader 91]
PTPN2 [1]
  DC50: 50 to 150 nM
PTPN2 [2]
  DC50: 150 to 500 nM

## Cn1c(=O)n(C2CCC(=O)NC2=O)c2ccc(N3CC4(CCN(CC(=O)Nc5ccc6c(F)c(N7CC(=O)NS7(=O)=O)c(O)cc6c5)CC4)C3)cc21 (stereo not drawn) [Degrader 92]
PTPN2 [1]
  DC50: 150 to 500 nM
PTPN2 [2]
  DC50: ≥ 500 nM

## Cn1c(=O)n(C2CCC(=O)NC2=O)c2ccc(N3CCN(CNC(=O)Nc4ccc5c(F)c(N6CC(=O)NS6(=O)=O)c(O)cc5c4)CC3)cc21 (stereo not drawn) [Degrader 93]
PTPN2 [1]
  DC50: 50 to 150 nM
PTPN2 [2]
  DC50: 50 to 150 nM

## Cc1cc(C(C)C(=O)Nc2ccc3c(F)c(N4CC(=O)NS4(=O)=O)c(O)cc3c2)ccc1Nc1ccc2c(c1)n(C)c(=O)n2C1CCC(=O)NC1=O (stereo not drawn) [Degrader 94]
PTPN2 [1]
  DC50: 150 to 500 nM
PTPN2 [2]
  DC50: 50 to 150 nM

## Cc1nn(CC(=O)Nc2ccc3c(F)c(N4CC(=O)NS4(=O)=O)c(O)cc3c2)c2ccc(-c3ccc4c(c3)n(C)c(=O)n4C3CCC(=O)NC3=O)cc12 (stereo not drawn) [Degrader 95]
PTPN2 [1]
  DC50: < 50 nM
PTPN2 [2]
  DC50: < 50 nM

## Cn1c(=O)n(C2CCC(=O)NC2=O)c2ccc(N3CC4(CC(OCC(=O)Nc5ccc6c(F)c(N7CC(=O)NS7(=O)=O)c(O)cc6c5)C4)C3)cc21 (stereo not drawn) [Degrader 96]
PTPN2 [1]
  DC50: 50 to 150 nM
PTPN2 [2]
  DC50: 150 to 500 nM

## Cn1c(=O)n(C2CCC(=O)NC2=O)c2ccc(N3CCCC(CC(=O)Nc4ccc5c(F)c(N6CC(=O)NS6(=O)=O)c(O)cc5c4)CC3)cc21 (stereo not drawn) [Degrader 97]
PTPN2 [1]
  DC50: 50 to 150 nM
PTPN2 [2]
  DC50: 150 to 500 nM

## COC1(CC(=O)Nc2ccc3c(F)c(N4CC(=O)NS4(=O)=O)c(O)cc3c2)CCN(c2ccc3c(c2)n(C)c(=O)n3C2CCC(=O)NC2=O)CC1 (stereo not drawn) [Degrader 99]
PTPN2 [1]
  DC50: < 50 nM
PTPN2 [2]
  DC50: 50 to 150 nM
